Values quoted from earlier work as cited in patent US9915714B2, “MSC-SELMQC method for simultaneous mapping of polyunsaturated fatty acids, lactate and choline in high fat tissues” (University of Pittsburgh—Of the Commonwealth System of …, priority 2007, dated 2018).

Test system: RIF-1 tumors
Conditions: following therapeutic intervention, 300 mg/kg; correlates with increases in tumor perfusion and permeability (Gd-DTPA uptake curves)

O=P1(N(CCCl)CCCl)NCCCO1 (stereo not shown) [cyclophosphamide]
lactate levels in RIF-1 tumors: decrease
